Experimental findings from PMC11119685, “Undescribed Cyclohexene and Benzofuran Alkenyl Derivatives from Choerospondias axillaris, a Potential Hypoglycemic Fruit” (Foods, 2024) are described below.

Structures are written as SMILES.

Chain of α-glucosidase (P53341 whole entry): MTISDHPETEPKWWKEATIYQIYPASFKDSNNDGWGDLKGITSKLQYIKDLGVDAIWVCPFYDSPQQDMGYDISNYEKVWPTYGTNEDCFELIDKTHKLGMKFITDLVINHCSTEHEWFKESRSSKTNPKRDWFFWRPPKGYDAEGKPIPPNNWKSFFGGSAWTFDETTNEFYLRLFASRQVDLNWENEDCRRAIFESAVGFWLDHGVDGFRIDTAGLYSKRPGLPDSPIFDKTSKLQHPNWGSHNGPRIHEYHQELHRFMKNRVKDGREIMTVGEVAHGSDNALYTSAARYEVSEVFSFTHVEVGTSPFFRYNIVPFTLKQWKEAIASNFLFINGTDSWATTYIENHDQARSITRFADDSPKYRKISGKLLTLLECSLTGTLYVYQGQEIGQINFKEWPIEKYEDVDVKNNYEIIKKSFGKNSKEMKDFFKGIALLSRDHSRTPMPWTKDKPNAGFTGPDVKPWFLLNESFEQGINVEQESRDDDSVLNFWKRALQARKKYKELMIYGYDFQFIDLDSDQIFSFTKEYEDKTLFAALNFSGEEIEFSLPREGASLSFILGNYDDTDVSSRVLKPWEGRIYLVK

In one experiment the target is α-glucosidase (Saccharomyces cerevisiae, UniProt P53341). The experiment can be described thus: α-Glucosidase inhibitory assay (pNPG substrate, absorbance at 405 nm). Format: biochemical. To be noted: at a concentration of 50 μM; means ± SD (n = 3); read-out: Inhibition Rate (in vitro α-glucosidase inhibitory activity). The procedure:
The α-glucosidase inhibitory activity was evaluated according to a previous method. In brief, α-glucosidase solution (0.025 U/mL, dissolved in 0.1 M phosphate-buffered saline (PBS) solution with a pH of 6.8), was mixed with 50 μM inhibitor and incubated at 37 °C for 10 min. pNPG solution (1 μM, dissolved in 0.1 M PBS solution) was added to the mixed solution and incubated at 37 °C for 40 min. Sodium carbonate (1 M) solution was added to terminate the reaction. […] The absorbance was recorded at 405 nm usin a microplate reader. The α-glucosidase inhibitory rate was calculated as follows:
Inhibitory rate% = [(A0 − A1)/A0)] × 100%, where:
A0 and A1 represent the absorbance of the blank group (containing enzyme, pNPG, PBS buffer, and DMSO), the sample group (containing enzyme, pNPG, PBS buffer, and samples), respectively. IC50 values were computed based on the Reed–Muench method.
All data were analyzed and presented as mean values ± SD from three independent assays (n = 3). The IC50 values were determined by Graph Pad Prism version 5 (University of California, San Diego, CA, USA).
Regarding `CCCCC=CCCCCCCCCCC1(O)CC(O)CCC1O` [Compound 1, (1S,2R,4S)-2-[10′(Z)-pentadecenyl]-cyclohexane-1,2,4-triol], the inhibition at 50 µM is -8.1 ± 2.4%. For the molecule `CCCCC=CCCCCCCCCCCCC1(O)CC(O)C=CC1O` [Compound 2, (1S,2R,4S)-2-[12′(Z)-heptadecenyl]-cyclohex-5-en-1,2,4-triol], the inhibition at 50 µM is -12.4 ± 0.66%. Take `CCCCC=CCCCCCCCCCCCCCC1(O)CC(O)C=CC1O` [Compound 3, (1S,2R,4S)-2-[14′(Z)-nonadecenyl]-cyclohex-5-en-1,2,4-triol]: the inhibition at 50 µM is -13.6 ± 1.7%. On the same count and under the same terms, in the case of `CCCCC=CCCCCCCCCCC(O)CC1=CC(=O)CCC1O` [Compound 4, (4R,2′R)-dihydroxy-3-[12′(Z)-heptadecenyl]-2-cyclohexenone] it was 11.1 ± 1.1%; in that of `CCCCC=CCCCCCCCCCC(O)CC1=CC(=O)CC(O)C1O` [Compound 5, (4S,5S,2′R)-trihydroxy-3-[12′(Z)-heptadecenyl]-2-cyclohexenone], -11.2 ± 0.94%; in that of `CCCC/C=C\CCCCCCCCCc1cc2cc(O)ccc2o1` [Compound 6, 2-[10′(Z)-pentadecenyl]-benzofuran-5-ol], 97.7 ± 0.19%. Still for that read-out and setting: in the case of `CCCC/C=C\CCCCCCCc1cc2cc(O)ccc2o1` [Compound 7, 2-[8′(Z)-tridecenyl]-benzofuran-5-ol] it was 96.7 ± 0.51%; in that of `CCCC/C=C\CCCCCCCCCCCc1cc2cc(O)ccc2o1` [Compound 8, choerosponol A], 98.7 ± 0.2%. The same measure, in the same setting: in the case of `Oc1cc(O)c2c(c1)O[C@H](c1ccc(O)c(O)c1)[C@@H](O)C2` [Compound 9, catechin] it was 61.1 ± 1.6%; in that of `O=C1c2c(O)cc(O)cc2O[C@H](c2ccc(O)cc2)[C@H]1O` [Compound 11, dihydrokaempferol], 43.8 ± 1.3%; in that of `O=C1C[C@@H](c2ccc(O)c(O)c2)Oc2cc(O)cc(O)c21` [Compound 12, eriodictyol], 66.6 ± 0.92%. `COc1cc([C@H]2c3cc(O)c(OC)cc3C[C@@H](CO)[C@@H]2CO)ccc1O` [Compound 15, (+)-isolariciresinol]: the inhibition at 50 µM is 16.6 ± 0.57%.

For the molecule `COc1cc([C@@H]2c3c(cc(OC)c(O)c3OC)C[C@H](CO)[C@H]2CO)cc(OC)c1O` [Compound 16, (−)-lyoniresinol], the inhibition at 50 µM turned out to be 7.5 ± 1.4%. For `COc1cc(C[C@@H](CO)[C@H](CO)Cc2ccc(O)c(OC)c2)ccc1O` [Compound 17, (−)-secoisolariciresinol], the inhibition at 50 µM was determined as 37.6 ± 0.12%. Same read-out and setting: in the case of `COc1cc(C2OCC3C(c4cc(OC)c(O)c(OC)c4)OCC23)cc(OC)c1O` (centres unmarked) [Compound 18, lirioresinol] it was 4.8 ± 0.38%.

The same experiment, now with this note: qualitative statement; tested at 50 μM.
For `Oc1cc(O)c2c(c1)O[C@H](c1ccc(O)c(O)c1)[C@@H](O)C2` [Compound 9, catechin], the “α-glucosidase inhibitory activity, in words” value is listed as “notable α-glucosidase inhibition”.

Turning to `O=C1c2c(O)cc(O)cc2O[C@H](c2ccc(O)c(O)c2)[C@H]1O` [Compound 10, dihydroquercetin], the “α-glucosidase inhibitory activity, in words” value is listed as “comparable α-glucosidase inhibitory”. The same measure, in the same setting: under `O=C1c2c(O)cc(O)cc2O[C@H](c2ccc(O)cc2)[C@H]1O` [Compound 11, dihydrokaempferol] stands “comparable α-glucosidase inhibitory”; under `C[C@@H]1O[C@@H](Oc2c(-c3ccc(O)c(O)c3)oc3cc(O)cc(O)c3c2=O)[C@H](O)[C@H](O)[C@H]1O` [Compound 14, quercetin-3-O-α-L-rhamnoside], “comparable α-glucosidase inhibitory”; under `COc1cc([C@H]2c3cc(O)c(OC)cc3C[C@@H](CO)[C@@H]2CO)ccc1O` [Compound 15, (+)-isolariciresinol], “weak inhibitory activity”. Take `COc1cc([C@@H]2c3c(cc(OC)c(O)c3OC)C[C@H](CO)[C@H]2CO)cc(OC)c1O` [Compound 16, (−)-lyoniresinol]: the “α-glucosidase inhibitory activity, in words” value is “weak inhibitory activity”. On the same count and under the same terms, in the case of `COc1cc(C[C@@H](CO)[C@H](CO)Cc2ccc(O)c(OC)c2)ccc1O` [Compound 17, (−)-secoisolariciresinol] it was “weak inhibitory activity”; in that of `COc1cc(C2OCC3C(c4cc(OC)c(O)c(OC)c4)OCC23)cc(OC)c1O` (centres unmarked) [Compound 18, lirioresinol], “weak inhibitory activity”.

The experiment is the same for the next values; noted with them: read-out: Inhibition Rate (in vitro α-glucosidase inhibitory activity).
For the molecule `O=C1c2c(O)cc(O)cc2O[C@H](c2ccc(O)c(O)c2)[C@H]1O` [Compound 10, dihydroquercetin], the inhibition at 50 µM turned out to be 36.4 ± 0.72%. For `O=C1C[C@@H](c2ccc(O)cc2)Oc2cc(O)cc(O)c21` [Compound 13, naringenin], the inhibition at 50 µM was 65.1 ± 2%. The same measure, in the same setting: in the case of `C[C@@H]1O[C@@H](Oc2c(-c3ccc(O)c(O)c3)oc3cc(O)cc(O)c3c2=O)[C@H](O)[C@H](O)[C@H]1O` [Compound 14, quercetin-3-O-α-L-rhamnoside] it was 26.2 ± 1.3%.

By inhibition is commonly meant the drop in the measured response relative to a control, in per cent.
